Patent US20250268884A1, “Deuterated Domperidone for Treating Gastroparesis” (CinDome Pharma, Inc., priority 2022, published 2025)

Tested on: adults with idiopathic or diabetic gastroparesis
Assay: Clinical Grading Assessment Scale / CPGAS, Day 14, Phase 2a
Assay type: in vivo, human
Settings: Day 14, ITT; for CPGAS score, investigator, mean (SD) / CPGAS score, subject, mean (SD): scale +7 to −7
From the text: For assessment of global clinical response, the following question was utilized at Day 14: “In thinking about the last 2 weeks, how would you say your stomach/gastroparesis-related problems/symptoms have been compared to the period before you started treatment on this study?” Responses were the following: improved, no change, or worsened. Subjects were asked to quantify their therapeutic response using the Clinical Patient Grading Assessment Scale. Subjects picked a number over a range (+7=completely better; 0=no change; −7=very much worse) that best answered the question.

Q: What does the source list for [2H]c1c([2H])c([2H])c2c([nH]c(=O)n2CCCN2CCC(n3c(=O)[nH]c4cc(Cl)ccc43)CC2)c1[2H] [Deudomperidone, 1-{3-[4-(5-chloro-2-oxo-2,3-dihydro-1H-1,3-benzodiazol-1-yl)piperidin-1yl]propyl}-2,3-dihydro(4,5,6,7-D4)-1H-1,3-benzodiazol-2-one]?
A: Clinical Grading Assessment Scale, investigator response: Improved (5 mg BID, N′ = 9): 6 (66.7) n (%); Clinical Grading Assessment Scale, investigator response: No change (5 mg BID, N′ = 9): 3 (33.3) n (%); Clinical Grading Assessment Scale, investigator response: Worsened (5 mg BID, N′ = 9): 0 (0.0) n (%); Clinical Grading Assessment Scale, subject response: Improved (5 mg BID, N′ = 9): 5 (55.6) n (%); Clinical Grading Assessment Scale, subject response: No change (5 mg BID, N′ = 9): 4 (44.4) n (%); Clinical Grading Assessment Scale, subject response: Worsened (5 mg BID, N′ = 9): 0 (0.0) n (%); CPGAS score, investigator, mean (SD) (5 mg BID): 2.2 (2.05); CPGAS score, subject, mean (SD) (5 mg BID): 2.1 (2.26); Clinical Grading Assessment Scale, subject response: Improved (10 mg BID, N′ = 23): 17 (73.9) n (%); Clinical Grading Assessment Scale, subject response: No change (10 mg BID, N′ = 23): 5 (21.7) n (%); Clinical Grading Assessment Scale, subject response: Worsened (10 mg BID, N′ = 23): 1 (4.3) n (%); Clinical Grading Assessment Scale, investigator response: Improved (10 mg BID, N′ = 30): 22 (73.3) n (%); Clinical Grading Assessment Scale, investigator response: No change (10 mg BID, N′ = 30): 8 (26.7) n (%); Clinical Grading Assessment Scale, investigator response: Worsened (10 mg BID, N′ = 30): 0 (0.0) n (%); CPGAS score, investigator, mean (SD) (10 mg BID): 2.5 (1.98); CPGAS score, subject, mean (SD) (10 mg BID): 3.0 (2.70); Clinical Grading Assessment Scale, subject response: Improved (20 mg QD, N′ = 14): 9 (64.3) n (%); Clinical Grading Assessment Scale, subject response: No change (20 mg QD, N′ = 14): 5 (35.7) n (%); Clinical Grading Assessment Scale, subject response: Worsened (20 mg QD, N′ = 14): 0 (0.0) n (%); Clinical Grading Assessment Scale, investigator response: Improved (20 mg QD, N′ = 15): 11 (73.3) n (%); Clinical Grading Assessment Scale, investigator response: No change (20 mg QD, N′ = 15): 4 (26.7) n (%); Clinical Grading Assessment Scale, investigator response: Worsened (20 mg QD, N′ = 15): 0 (0.0) n (%); CPGAS score, investigator, mean (SD) (20 mg QD): 2.9 (2.26); CPGAS score, subject, mean (SD) (20 mg QD): 2.9 (2.62)
